From patent US7732429B2 (Trustees of Tufts College, priority 1994, dated 2010)

What was measured:
[1] = tested on: E. coli Class B Tc^r (DI-209); format: cell-based; details: drug alone; for MLC: kills 99.9%
[2] = tested on: E. faecalis Tc^r(M) (ATCC09790r/TelM); format: cell-based; details: drug alone
[3] = tested on: E. faecalis Tc^s (ATCC9790r); assay: susceptibility testing MIC/MLC, drug alone; format: cell-based
[4] = tested on: E. coli Tc^s (MI 308-226); assay: susceptibility testing MIC/MLC, drug alone; format: cell-based; details: Tc^s (MI 308-226), drug alone; for MLC: kills 99.9%
[5] = tested on: E. faecalis Tc^r (L) ATCC9790r/Tell.); assay: susceptibility testing MIC/MLC, drug alone; format: cell-based; details: Tc^r (L) ATCC9790r/Tell.), drug alone
[6] = target: T1, efflux protein (Escherichia coli, UniProt P02980); assay: everted membrane vesicle assay, blocking activity of 13-S-derivatives; format: biochemical; details: blocking activity against the efflux protein, everted membrane vesicle assay
T1 sequence (P02980 1-401): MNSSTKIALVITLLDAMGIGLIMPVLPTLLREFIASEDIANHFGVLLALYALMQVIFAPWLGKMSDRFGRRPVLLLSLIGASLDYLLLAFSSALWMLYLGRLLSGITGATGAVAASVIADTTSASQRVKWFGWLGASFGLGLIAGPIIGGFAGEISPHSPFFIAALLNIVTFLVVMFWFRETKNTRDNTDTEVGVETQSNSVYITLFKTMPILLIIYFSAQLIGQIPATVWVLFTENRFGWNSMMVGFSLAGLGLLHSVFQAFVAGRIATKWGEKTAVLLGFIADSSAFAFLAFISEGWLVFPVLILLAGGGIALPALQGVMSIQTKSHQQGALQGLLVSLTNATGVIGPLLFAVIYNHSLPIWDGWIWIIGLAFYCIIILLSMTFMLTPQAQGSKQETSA

[7] = tested on: E. coli Class A Tc^r (DI-299); format: cell-based; details: drug alone; for MLC: kills 99.9%
[8] = tested on: E. faecalis 158 (Tet L); assay: MIC/MLC chart, analog with and without doxycycline; format: cell-based
[9] = tested on: E. faecalis 211 (Tet M); assay: MIC/MLC chart, analog with and without doxycycline; format: cell-based
[10] = tested on: S. aureus 4250 (Tet K); assay: MIC/MLC chart, analog with and without doxycycline; format: cell-based
[11] = tested on: E. coli DI-299 (Tet A); assay: MIC/MLC chart, analog with and without doxycycline; format: cell-based; design: key to growth/killing, Analog + Doxy / growth/killing, Doxy Control / growth/killing, Analog Control / growth in MIC/MLC chart: +=growth; 0=no growth (MIC); ↓=killing; ? =99.9% killing (MLC); □=no growth, but no microbiologic testing;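 further: bacterial growth inhibition and killing in broth, each agent tested alone or combined with doxycycline across two-fold serial dilutions, overnight incubation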
[12] = Analog Control: analog alone .195 μg/ml
[13] = Analog Control: analog alone .39 μg/ml
[14] = Analog Control: analog alone .78 μg/ml
[15] = analog .195 μg/ml + doxycycline 1.56 μg/ml
[16] = analog .195 μg/ml + doxycycline 3.12 μg/ml
[17] = Analog Control: analog alone 1.56 μg/ml
[18] = analog 1.56 μg/ml + doxycycline 1.55 μg/ml
[19] = analog 1.56 μg/ml + doxycycline 3.1 μg/ml
[20] = analog 1.56 μg/ml + doxycycline 6.2 μg/ml
[21] = analog .195 μg/ml + doxycycline 6.25 μg/ml
[22] = analog .195 μg/ml + doxycycline 12.5 μg/ml
[23] = analog .39 μg/ml + doxycycline 1.56 μg/ml
[24] = analog .39 μg/ml + doxycycline 3.12 μg/ml
[25] = analog .39 μg/ml + doxycycline 6.25 μg/ml
[26] = analog .39 μg/ml + doxycycline 12.5 μg/ml
[27] = analog .78 μg/ml + doxycycline 1.56 μg/ml
[28] = analog .78 μg/ml + doxycycline 3.12 μg/ml
[29] = analog .78 μg/ml + doxycycline 6.23 μg/ml
[30] = Doxy Control: doxycycline alone 1.56 μg/ml
[31] = Doxy Control: doxycycline alone 3.12 μg/ml
[32] = Doxy Control: doxycycline alone 6.25 μg/ml
[33] = Doxy Control: doxycycline alone 12.5 μg/ml

CN(C)C1C(O)=C(C(N)=O)C(=O)C2(O)C(O)=C3C(=O)c4c(O)cccc4C(C)(O)C3CC12 (centres unmarked) [Tetracycline, 4-(Dimethylamino)-1,4,4a,5,5a,6-11,12a-octahydro-3,6,10,12,12a-pentahydroxy-6-methyl-1-11-dioxo-2-naphthacenecarboxamide, reference compound]
MIC [1]: >200 µg
MLC [1]: >200 µg
MIC [2]: 100 µg
MIC [3]: 0.25 µg
MIC [4]: 0.6 ± 0.26 µg
MLC [4]: 40 ± 0.26 µg
MIC [5]: 90 ± 10 µg
Ki [6]: 9 to 18 µM
MIC [7]: 150 ± 0.25 µg
MLC [7]: 200 µg

CC(C)SCC1c2cccc(O)c2C(=O)C2=C(O)C3(O)C(=O)C(C(N)=O)=C(O)C(N(C)C)C3C(O)C21 (centres unmarked) [Isopropyl]
MIC [1]: 35 ± 6 µg
MLC [1]: 46 ± 16 µg
MIC [3]: 3 ± 1 µg
MIC [4]: 22 ± 2 µg
MLC [4]: 50 µg
MIC [5]: 3 ± 1 µg
Ki [6]: 0.771 µM
MIC [7]: 45 ± 6 µg
MLC [7]: 60 µg

CN(C)c1ccc(O)c2c1C[C@H]1C[C@H]3[C@H](N(C)C)C(=O)C(C(N)=O)=C(O)[C@@]3(O)C(=O)C1=C2O [Minocycline, reference compound]
MIC [1]: 6 ± 2 µg
MLC [1]: 30 ± 10 µg
MIC [2]: 10 µg
MIC [3]: <0.25 µg
MIC [4]: <4 µg
MLC [4]: <4 µg
MIC [5]: <0.25 µg
MIC [7]: <4 µg
MLC [7]: 20 µg

CCCCSCC1c2cccc(O)c2C(=O)C2=C(O)C3(O)C(=O)C(C(N)=O)=C(O)C(N(C)C)C3C(O)C21 (centres unmarked) [Butyl]
Ki [6]: 0.5 µg/mL

CN(C)C1C(O)=C(C(N)=O)C(=O)C2(O)C(O)=C3C(=O)c4c(O)cccc4C(CSCc4ccc(Cl)cc4)C3C(O)C12 (centres unmarked) [p-Cl-Benzyl]
Ki [6]: 1.5 µg/mL

CN(C)C1C(O)=C(C(N)=O)C(=O)C2(O)C(O)=C3C(=O)c4c(O)cccc4C(CSC(C)(C)C)C3C(O)C12 (centres unmarked) [t-Butyl]
Ki [6]: 0.3 µg/mL

CCCCCCCCCCSCC1c2cccc(O)c2C(=O)C2=C(O)C3(O)C(=O)C(C(N)=O)=C(O)C(N(C)C)C3C(O)C21 (centres unmarked) [Decyl]
Ki [6]: 8.0 µg/mL

CCCSCC1c2cccc(O)c2C(=O)C2=C(O)C3(O)C(=O)C(C(N)=O)=C(O)C(N(C)C)C3C(OC(=O)CC)C21 (centres unmarked) [Cmpd 13-propyl-thio-5-proprionate]
growth in MIC/MLC chart [8, 12]: +
growth in MIC/MLC chart [8, 13]: +
growth in MIC/MLC chart [8, 14]: +
growth in MIC/MLC chart [8, 15]: +
growth in MIC/MLC chart [8, 16]: +
growth in MIC/MLC chart [9, 17]: +
growth in MIC/MLC chart [9, 12]: +
growth in MIC/MLC chart [9, 13]: +
growth in MIC/MLC chart [9, 14]: +
growth in MIC/MLC chart [9, 18]: +
growth in MIC/MLC chart [9, 19]: +
growth in MIC/MLC chart [9, 20]: +
growth in MIC/MLC chart [9, 15]: +
growth in MIC/MLC chart [9, 16]: +
growth in MIC/MLC chart [9, 21]: +
growth in MIC/MLC chart [9, 22]: +
growth in MIC/MLC chart [9, 23]: +
growth in MIC/MLC chart [9, 24]: +
growth in MIC/MLC chart [9, 25]: +
growth in MIC/MLC chart [9, 26]: +
growth in MIC/MLC chart [9, 27]: +
growth in MIC/MLC chart [9, 28]: +
growth in MIC/MLC chart [9, 29]: +
growth in MIC/MLC chart [10, 12]: +
growth in MIC/MLC chart [10, 15]: +
growth in MIC/MLC chart [11, 17]: +
growth in MIC/MLC chart ([11]; Analog Control: analog alone 3.12 μg/ml): +
growth in MIC/MLC chart ([11]; Analog Control: analog alone 6.25 μg/ml): +
growth in MIC/MLC chart ([11]; Analog Control: analog alone 12.5 μg/ml): +
growth in MIC/MLC chart ([11]; Analog Control: analog alone 25.0 μg/ml): +
growth in MIC/MLC chart ([11]; Analog Control: analog alone 50.00 μg/ml): +
growth in MIC/MLC chart [11, 12]: +
growth in MIC/MLC chart [11, 13]: +
growth in MIC/MLC chart [11, 14]: +
growth in MIC/MLC chart [11, 18]: +
growth in MIC/MLC chart [11, 19]: +
growth in MIC/MLC chart [11, 20]: +
growth in MIC/MLC chart ([11]; analog 3.12 μg/ml + doxycycline 1.53 μg/ml): +
growth in MIC/MLC chart ([11]; analog 3.12 μg/ml + doxycycline 3.05 μg/ml): +
growth in MIC/MLC chart ([11]; analog 3.12 μg/ml + doxycycline 6.1 μg/ml): +
growth in MIC/MLC chart ([11]; analog 6.25 μg/ml + doxycycline 3.0 μg/ml): +
growth in MIC/MLC chart ([11]; analog 6.25 μg/ml + doxycycline 5.9 μg/ml): +
growth in MIC/MLC chart ([11]; analog 6.25 μg/ml + doxycycline […]): +
growth in MIC/MLC chart ([11]; analog 12.5 μg/ml + doxycycline 2.8 μg/ml): +
growth in MIC/MLC chart ([11]; analog 12.5 μg/ml + doxycycline 5.5 μg/ml): +
growth in MIC/MLC chart ([11]; analog 12.5 μg/ml + doxycycline […]): +
growth in MIC/MLC chart ([11]; analog 25 μg/ml + doxycycline 2.4 μg/ml): +
growth in MIC/MLC chart ([11]; analog 25 μg/ml + doxycycline 4.7 μg/ml): +
growth in MIC/MLC chart ([11]; analog 25 μg/ml + doxycycline […]): +
growth in MIC/MLC chart ([11]; analog 50 μg/ml + doxycycline 1.56 μg/ml): +
growth in MIC/MLC chart ([11]; analog 50 μg/ml + doxycycline 3.12 μg/ml): +
growth in MIC/MLC chart ([11]; analog 50 μg/ml + doxycycline .78 μg/ml): +
growth in MIC/MLC chart [11, 15]: +
growth in MIC/MLC chart [11, 16]: +
growth in MIC/MLC chart [11, 21]: +
growth in MIC/MLC chart [11, 22]: +
growth in MIC/MLC chart [11, 23]: +
growth in MIC/MLC chart [11, 24]: +
growth in MIC/MLC chart [11, 25]: +
growth in MIC/MLC chart [11, 26]: +
growth in MIC/MLC chart [11, 27]: +
growth in MIC/MLC chart [11, 28]: +
growth in MIC/MLC chart [11, 29]: +
growth in MIC/MLC chart ([11]; analog .78 μg/ml + doxycycline 12.4 μg/ml): +

Cc1ccc(CSCC2c3cccc(O)c3C(=O)C3=C(O)C4(O)C(=O)C(C(N)=O)=C(O)C(N(C)C)C4C(O)C32)cc1 (centres unmarked) [p-Me-Benzyl]
Ki [6]: 1.2 µg/mL

CCCCCCSCC1c2cccc(O)c2C(=O)C2=C(O)C3(O)C(=O)C(C(N)=O)=C(O)C(N(C)C)C3C(O)C21 (centres unmarked) [Hexyl]
Ki [6]: 5.53 µM

CC(C)CSCC1c2cccc(O)c2C(=O)C2=C(O)C3(O)C(=O)C(C(N)=O)=C(O)C(N(C)C)C3C(O)C21 (centres unmarked) [Isobutyl]
Ki [6]: 0.188 µM

C[C@H]1c2cccc(O)c2C(O)=C2C(=O)[C@]3(O)C(O)=C(C(N)=O)C(=O)[C@@H](N(C)C)[C@@H]3[C@@H](O)[C@@H]21 [Doxy, Doxycycline, reference compound]
growth in MIC/MLC chart [8, 30]: +
growth in MIC/MLC chart [8, 31]: +
growth in MIC/MLC chart [8, 32]: +
growth/killing, Doxy Control ([8]; Doxy alone 1.56 μg/ml): +
growth/killing, Doxy Control ([8]; Doxy alone 3.12 μg/ml): +
growth/killing, Doxy Control ([8]; Doxy alone 6.25 μg/ml): +
growth in MIC/MLC chart [9, 30]: +
growth in MIC/MLC chart [9, 31]: +
growth in MIC/MLC chart [9, 32]: +
growth in MIC/MLC chart [9, 33]: +
growth/killing, Doxy Control ([9]; Doxy alone 1.56 μg/ml): +
growth/killing, Doxy Control ([9]; Doxy alone 3.12 μg/ml): +
growth/killing, Doxy Control ([9]; Doxy alone 6.25 μg/ml): +
growth/killing, Doxy Control ([9]; Doxy alone 12.5 μg/ml): +
growth in MIC/MLC chart [10, 30]: +
growth in MIC/MLC chart [10, 31]: +
growth in MIC/MLC chart [10, 32]: +
growth in MIC/MLC chart [10, 33]: +
growth/killing, Doxy Control ([10]; Doxy alone 1.56 μg/ml): +
growth/killing, Doxy Control ([10]; Doxy alone 3.12 μg/ml): +
growth/killing, Doxy Control ([10]; Doxy alone 6.25 μg/ml): +
growth/killing, Doxy Control ([10]; Doxy alone 12.5 μg/ml): +
growth in MIC/MLC chart [11, 30]: +
growth in MIC/MLC chart [11, 31]: +
growth in MIC/MLC chart [11, 32]: +
growth in MIC/MLC chart [11, 33]: +
growth in MIC/MLC chart ([11]; Doxy Control: doxycycline alone 25.0 μg/ml): +
growth/killing, Doxy Control ([11]; Doxy alone 1.56 μg/ml): +
growth/killing, Doxy Control ([11]; Doxy alone 3.12 μg/ml): +
growth/killing, Doxy Control ([11]; Doxy alone 6.25 μg/ml): +
growth/killing, Doxy Control ([11]; Doxy alone 12.5 μg/ml): +
growth/killing, Doxy Control ([11]; Doxy alone 25.0 μg/ml): +
